pEC50: −log10 of the molar value.
Columns and labels:
Cytotoxicity (Huh-7) = format: cell-based; conditions: human, Huh-7 cells
From the text: The in vitro antiviral activity against HCV of the compounds of formula I can be tested in a cellular HCV replicon system based on Lohmann et al. (1999) Science 285:110-113, with the further modifications described by Krieger et al. (2001) Journal of Virology 75: 4614-4624 (incorporated herein by reference), which is further exemplified in the examples section. This model, while not a complete infection model for HCV, is widely accepted as the most robust and efficient model of autonomous HCV RNA replication currently available. It will be appreciated that it is important to distinguish between compounds that specifically interfere with HCV functions from those that exert cytotoxic or cytostatic effects in the HCV replicon model, and as a consequence cause a decrease in HCV RNA or linked reporter enzyme concentration. Assays are known in the field for the evaluation of cellular cytotoxicity based for example on the activity of mitochondrial enzymes using fluorogenic redox dyes such as resazurin. Furthermore, cellular counter screens exist for the evaluation of non-selective inhibition of linked reporter gene activity, such as firefly luciferase. Appropriate cell types can be equipped by stable transfection with a luciferase reporter gene whose expression is dependent on a constitutively active gene promoter, and such cells can be used as a counter-screen to eliminate non-selective inhibitors.

HCV replicon = HCV replicon assay (Huh-Luc cells, luciferase read-out); format: cell-based, HCV type Ib; conditions: Hepatitis C virus, 72 h, three days incubation, luciferase activity
From the text: The compounds of formula (I) were examined for inhibitory activity in the HCV replicon. This cellular assay is based on a bicistronic expression construct, as described by Lohmann et al. (1999) Science vol. 285 pp. 110-113 with modifications described by Krieger et al. (2001) Journal of Virology 75: 4614-4624, in a multi-target screening strategy.
In essence, the method was as follows:
The assay utilized the stably transfected cell line Huh-7 luc/neo (hereafter referred to as Huh-Luc). This cell line harbors an RNA encoding a bicistronic expression construct comprising the wild type NS3-NS5B regions of HCV type Ib translated from an Internal Ribosome Entry Site (IRES) from encephalomyocarditis virus (EMCV), preceded by a reporter portion (FfL-luciferase), and a selectable marker portion (neo^R, neomycine phosphotransferase). The construct is flanked by 5′ and 3′ NTRs (non-translated regions) from HCV type Ib. Continued culture of the replicon cells in the presence of G418 (neo^R) is dependent on the replication of the HCV RNA. The stably transfected replicon cells that express HCV RNA, which replicates autonomously and to high levels, encoding inter alia luciferase, were used for screening the antiviral compounds.
The replicon cells were plated in 384 well plates in the presence of the test and control compounds which were added in various concentrations. Following an incubation of three days, HCV replication was measured by assaying luciferase activity (using standard luciferase assay substrates and reagents and a Perkin Elmer ViewLux™ ultraHTS microplate imager). Replicon cells in the control cultures have high luciferase expression in the absence of any inhibitor. The inhibitory activity of the compound on luciferase activity was monitored on the Huh-Luc cells, enabling a dose-response curve for each test compound. EC50 values were then calculated, which represent the amount of compound required to decrease the level of detected luciferase activity by 50%, or more specifically, to reduce the ability of the genetically linked HCV replicon RNA to replicate.

SMILES | CC50 (Cytotoxicity (Huh-7)) | pEC50 (HCV replicon)
O=C(CCc1ccccc1F)N1CCC[C@H]1c1nc(-c2cccc(Oc3ccc(-c4cnc([C@@H]5CCCN5C(=O)CCc5ccccc5F)[nH]4)cc3)c2)c[nH]1 [Example 26] | > 31.5 µM | 5.64
O=C([C@@H](O)c1ccccc1)N1CCC[C@H]1c1nc(-c2cccc(Oc3ccc(-c4cnc([C@@H]5CCCN5C(=O)[C@@H](O)c5ccccc5)[nH]4)cc3)c2)c[nH]1 [Example 23] | 3.66 µM | 7.22
COC(=O)N[C@H](C(=O)N1CCC[C@H]1c1ncc(-c2ccc(Oc3cccc(-c4cnc([C@@H]5CCCN5C(=O)[C@@H](NC(=O)OC)C(C)(C)C)[nH]4)c3)cc2)[nH]1)C(C)(C)C [Example 40] | 12.6 µM | 9.78
